Assay results: PubChem BioAssay AID651552 (The Scripps Research Institute Molecular Screening Center, 2012)
The source made the active and inactive calls. No rule for the calls is given here.

Target: beta-lactamase TEM-1 reporter (bacterial) (UniProt Q932Y6)
Assay: beta-lactamase reporter inhibitor potency, dose response, artefact control for NOD2-RIPK2 interaction inhibitor project, BLA reporter cells, FRET fluorescence (AID 651552)
Details: HEK293 BLA reporter cells

SMILES | IC50
COc1ccc(C[C@H]2NC[C@H](O)[C@H]2OC(C)=O)cc1 | > 49.8 µM (inactive)
C=CCn1c(O)c(C2=c3ccccc3=NC2=O)c2ccccc21 | > 49.7 µM (inactive)
